Paper PMC10961402, “Safety, tolerability, pharmacokinetics and pharmacokinetic-pharmacodynamic modeling of cetagliptin in patients with type 2 diabetes mellitus” (Frontiers in Endocrinology, 2024)
Where two headings read alike, the source gives them in different places.

Experiments:
Type in all cases: in vivo, human
[1] = Plasma pharmacokinetics after single and multiple oral doses (non-compartmental analysis); conditions: patients with T2DM; for AUC(0-t): po, 100 mg
Description: This was a single-center, randomized, double-blind, placebo and positive-controlled, single and multiple oral-dose study. A total of 32 Chinese adults diagnosed with T2DM were recruited for this study and allocated into two dosage groups: 50 mg and 100 mg, each consisting of 16 participants. […] The positive control was designed as open label. […] Subjects underwent medication randomization on day -1, and were assigned the corresponding investigational products. They were orally administered to the drug once every morning on fasting condition for 14 consecutive days. […] After finished the dosing, another OGTT was performed on day 15. Blood samples were collected at designated time points for the analysis of PK/PD and exploratory indicators. Subjects were discharged after completion of the safety assessments on day 19. […] PK parameters were calculated using non-compartmental analysis with Phoenix WinNonlin (version 8.1, Certara, Co., Princeton, NJ, United States). Peak plasma concentration after administration (Cmax) and time to reach Cmax (Tmax) were obtained directly from the observed data, elimination half-life (t1/2) was calculated as ln2/λz using the best fit mode, where λz was the terminal elimination rate constant. Area under the plasma concentration-time curve from zero to the last measurable concentration (AUC0-t) was estimated using the linear trapezoidal method and AUC from zero to infinity (AUC0-∞) was calculated as AUC0-t+Ct/λz, where Ct was the last measured concentration. […] Apparent total plasma clearance after non-intravenous (CL/F) and apparent volume of distribution in terminal phase after non-intravenous (Vz/F) were calculated as Dose/AUC0-∞ and CL/λz, respectively.

plasma active GLP-1 = assay: Plasma active GLP-1 concentration change from baseline (ELISA); conditions: patients with T2DM
Description: Blood samples for GLP-1 activity evaluation were collected at the same time points as for PK. 2 mL blood samples were collected for GLP-1 activity detection (20 μL DPP-4i was added to blood-collecting tubes beforehand). The tubes were placed on ice until centrifugation. The blood samples were centrifuged at 2-8°C, 1500 g for 10 minutes within 1 hour after blood collection. After centrifugation, the blood samples were evenly divided into two aliquots and stored at -80 ± 10°C. Plasma active GLP-1 concentrations were determined using a validated ELISA method. Linear calibration curves were obtained in the concentration range of 0.017-276 pM ([31]).
The change of GLP-1 concentration from baseline (△GLP-1) was calculated as follows:
Δ [GLP-1] = [GLP-1] (t) - [GLP-1] (0)
The calculated parameters for GLP-1 activity were as follows: the baseline GLP-1 value before dosing (Baseline), Rmax, TRmax, AUEC0-t, AUEC0-24h, GLP-1 concentration change at 2 h after lunch (△GLP-1-6h), GLP-1 concentration change at 2 h after dinner (△GLP-1-12h), Rmin on day 14, and the average response on day 14 (Ravg).

[2] = test system: glucose, insulin, C-peptide, and glucagon; assay: Oral glucose tolerance test (OGTT): glucose, insulin, C-peptide, glucagon; conditions: patients with T2DM
Description: To assess the impact of investigational products on glucose, insulin, C-peptide, and glucagon, OGTT tests were conducted on day -1 and day 15 following a fasting period of more than 8 hours. Subjects received a 75 g oral glucose dose and blood samples (1.5 mL for glucose, 3.5 mL for insulin and C-peptide, 2 mL for glucagon) were collected at 0, 0.167, 0.5, 1, 1.5, 2, and 3 h after ingestion of glucose. The PD parameters (AUEC0-t) for glucose, insulin, C-peptide, and glucagon were calculated by using drug effect module of non-compartmental method with Phoenix WinNonlin.

[3] = Preliminary efficacy evaluation (FPG, 2 h PPG, HbA1c, GA); conditions: patients with T2DM; 100 mg once daily; day 14
Description: Blood samples for determination of fasting plasma glucose (FPG) and 2 hour postprandial plasma glucose (2 h PPG) were collected on day -2, day 7 and day 14. Additionally, blood samples for determination of glycated Hemoglobin A1C (HbA1c) and glycated Albumin (GA) were collected on day -2 and day 14. The changes of the above indexes relative to pre-treatment baseline (day -2) were evaluated and compared to investigate the preliminary efficacy of investigational product.

[4] = Safety and tolerability assessments (adverse events); conditions: patients with T2DM, 14 days
Description: Safety and tolerability were evaluated by monitoring adverse events (AEs), laboratory tests (including blood routine, urine routine, stool routine, blood biochemical test and coagulation function), vital signs, physical examination, 12-lead electrocardiogram and other indicators. AEs were monitored and collected throughout the study. Descriptive analysis of the type and intensity of AEs were conducted according to NCICTC AE5.0.

[5] = 100 mg oral once daily, day 14, median (range)
[6] = cetagliptin group (50 or 100 mg, n=20) / sitagliptin group (100 mg, n=8)

N[C@@H](CC(=O)N1CCn2c(nnc2C(F)(F)F)C1)Cc1cc(F)c(F)cc1F [Sitagliptin, sitagliptin, reference compound]
half-life ([1]; human, in vivo, 100 mg oral once daily, day 14): 547 ± 39.8 min
AUC(0-t) ([1]; human, plasma, 100 mg oral once daily, day 14, read-out: AUC0-24h): 3760 ± 748 ng·h/mL
AUC(0-t) ([1]; human, plasma, 100 mg oral once daily, day 14, read-out: AUC0-t): 4290 ± 783 ng·h/mL
AUC(0-t) ([1]; human, plasma, 100 mg oral, day 1, read-out: AUC0-24h): 3340 ± 522 ng·h/mL
AUC(0-inf) ([1]; human, plasma, 100 mg oral once daily, day 14): 4380 ± 789 ng·h/mL
Cmax ([1]; human, plasma, 100 mg oral once daily, day 14, read-out: Cmax,ss): 419 ± 137 ng/mL
Vd/F ([1]; human, plasma, 100 mg oral once daily, day 14, read-out: Vz,ss/F): 362 ± 75.9 L
Tmax ([1]; human, plasma, 100 mg oral, day 1, median (range), read-out: Tmax): 1.5 h
CLss/F ([1]; 100 mg oral once daily, day 14): 27.5 ± 5.12 L/h
Cavg ([1]; 100 mg oral once daily, day 14): 157 ± 31.2 ng/mL
Tmax,ss [1, 5]: 3.00 (0.500-5.00) h
Cmax ([1]; 100 mg oral, day 1): 394 ± 105 ng/mL
time of daily dosing after which steady-state conditions were reached ([1]; once daily dosing, trough concentrations days 7, 10, 14): 1 week
GLP-1 Baseline (value before dosing) (plasma active GLP-1; 100 mg group, day 1 before dosing): 0.442 ± 0.406 pM
R0h,ss (baseline plasma active GLP-1 on day 14) (plasma active GLP-1; 100 mg oral once daily, day 14): 1.700 ± 0.851 pM
△GLP-1-6h (change at 2 h after lunch) (plasma active GLP-1; 100 mg oral once daily, day 14): 6.553 ± 3.739 pM
△GLP-1-12h (change at 2 h after dinner) (plasma active GLP-1; 100 mg oral once daily, day 14): 5.775 ± 4.299 pM
△GLP-1 Ravg,ss (plasma active GLP-1; 100 mg oral once daily, day 14): 3.821 ± 2.361 pM
△GLP-1 Rmax,ss (plasma active GLP-1; 100 mg oral once daily, day 14): 8.080 ± 3.592 pM
R0h,ss (baseline plasma active GLP-1 on day 14) (plasma active GLP-1; 100 mg oral once daily, day 14, listed as sitagliptin): 1.700 pM
△GLP-1 TRmax,ss (plasma active GLP-1; [5]): 5.00 (5.00-6.00) h
△GLP-1-6h (change at 2 h after lunch) (plasma active GLP-1; 100 mg oral, day 1): 3.491 ± 1.703 pM
△GLP-1-12h (change at 2 h after dinner) (plasma active GLP-1; 100 mg oral, day 1): 3.764 ± 2.490 pM
△GLP-1 AUEC0-24h (plasma active GLP-1; 100 mg oral, day 1): 61.2 ± 28.6 pM·h
△GLP-1 Rmax (plasma active GLP-1; 100 mg oral, day 1): 5.901 ± 2.375 pM
△GLP-1 TRmax (plasma active GLP-1; 100 mg oral, day 1, median (range)): 7.00 (5.00-12.00) h
glucose AUEC0-t (OGTT) ([2]; 100 mg group, day -1 (baseline before dosing)): 44.07 ± 5.74 mmol·h/L
glucose AUEC0-t (OGTT) ([2]; day 15 after 100 mg once daily for 14 days): 43.40 ± 6.51 mmol·h/L
decrease of HbA1c compared with baseline [3]: 0.44%
intensity of drug-related adverse events ([4]; cetagliptin 50 or 100 mg, sitagliptin 100 mg): mild
number of drug-related AEs [4, 6]: 7 AEs
number of subjects reporting drug-related AEs [4, 6]: 3 subjects
